Assay [1] concerns human hormone-resistant prostatic cancer (PC-3). The assay can be described thus: Example 10: FK330 with docetaxel in PC-3 tumor-bearing mice. It counts as in vivo, nude mice. The conditions noted are these: FK330 100 mg/kg bid p.o. + docetaxel 10 mg/kg/day i.v. (2 days each cycle). On the procedure:
(§1) The dose of FK330 is expressed in terms of the weight of a simple substance (non-hydrate). Docetaxel (a docetaxel hydrate injectable preparation (Taxotere (trademark), for intravenous infusion)) was purchased from Sanofi-Aventis SA, and was used as docetaxel.
FK330 was suspended (20 mg/mL) in a 0.5% aqueous methyl cellulose solution (0.5% MC), and was orally administered. Docetaxel was prepared to a concentration of 20 mg/mL with 95% ethanol, and then diluted to 1 mg/mL with physiological saline for injection (Otsuka Pharmaceutical Group) immediately before administration and intravenously administered through the tail vein.
Human hormone-resistant prostatic cancer-derived PC-3 (CRL-1435) was obtained from American Type Culture Collection (VA, USA). […]
(§2) The body weight and the tumor diameter, determined by using a digital caliper, were measured twice a week. The tumor volume was calculated from the calculation formula for ellipsoid volume of (major axis×[minor axis]^2×0.5).
(§3) The results are expressed as the mean value (Mean)±standard error (SEM). […] Using the actual measured values of the tumor volume at each measurement time point, an unpaired statistical test (Student's t-test) of the difference between two groups was carried out between a single administration group and a combined use group. […]

The subject of assay [2] is human breast cancer (MDA-MB-468). The assay is described as follows: Example 11: FK330 with docetaxel in MDA-MB-468 tumor-bearing mice. It counts as in vivo, nude mice. Particulars: FK330 100 mg/kg bid p.o. + docetaxel 15 mg/kg/day i.v. (Day 0 and Day 37). On the procedure:
as §1
FK330 was suspended (20 mg/mL) in a 0.5% aqueous methyl cellulose solution (0.5% MC), and was orally administered. Docetaxel was prepared to a concentration of 20 mg/mL with 95% ethanol, and then diluted to 1.5 mg/mL with physiological saline for injection (Otsuka Pharmaceutical Group) immediately before administration and intravenously administered through the tail vein.
Human breast cancer-derived MDA-MB-468 (HTB-132) was obtained from American Type Culture Collection (VA, USA). […]
as §2, §3

We go through 1 compound from patent US20140066385A1, “METHOD FOR TREATING CANCER BY COMBINED USE OF DRUGS” (Astellas Pharma Inc., priority 2011, published 2014).

Turning to `O=C(/C=C/c1ccc(Cl)cc1)N[C@@H](Cc1ccccn1)C(=O)NCC(=O)N1CCC(Oc2cc(C(F)(F)F)ncn2)CC1` [FK330, N^2-[(2E)-3-(4-chlorophenyl)-2-propenoyl]-N-[2-oxo-2-(4-{[6-(trifluoromethyl)pyrimidin-4-yl]oxy}piperidin-1-yl)ethyl]-3-pyridin-2-yl-L-alaninamide], the “tumor volume reduction ratio compared with the docetaxel-only group” value in assay [1] (Day 27, P<0.062) was 49.3%; in assay [1] (Day 51, P<0.05), 42.0%; in assay [2] (Day 37, P<0.05), 46.6%; in assay [2] (Day 65, P<0.01), 76.6%.
